Measurements from patent US6747125B1, “Peptides intermediates for making GnRH antagonists” (The Salk Institute for Biological Studies, priority 1991, dated 2004).

How the values were obtained:
[1] = test system: ovulation in female rats; test: in vivo testing of effectiveness to prevent ovulation in female rats; set-up: species or system Sprague-Dawley rats; conditions: injected at about noon on the day of proestrus, rats ovulating/rats treated
Protocol: The in vivo testing determines effectiveness to prevent ovulation in female rats. In this test, a specified number of mature female Sprague-Dawley rats, e.g. five to ten, each having a body weight from 225 to 250 grams, is injected with a specified microgram dosage of peptide in either saline, bacteriostatic water, polyethylene glycol, corn oil or mixtures of the above with ethanol at about noon on the day of proestrus. Proestrus is the afternoon […]. A separate female rat group is used as a control to which the peptide is not administered. Each of the control female rats ovulates on the evening of proestrus; of the rats treated, the number of them which ovulate is recorded. Each of the peptides is considered to be totally effective to prevent ovulation of female rats at a dose of about 500 micrograms.

[2] = test system: LH levels in the bloodstream; test: suppression of circulating LH in castrate male rats after single IV bolus; type: in vivo, Sprague-Dawley rats
Source text: In addition to the in vivo testing, mentioned above, to determine effectiveness to prevent ovulation in female rats, groups of about 6 adult castrate male Sprague-Dawley rats, each having a body weight from 225 to 250 grams, are each injected IV with a 50 microgram dosage of either Peptide No. 103A or a standard antagonist referred to as the Nal-Glu antagonist (see J. Clin. Edno. Metab., 71, 4, 881-888 (1990)) in either corn oil or a phosphate buffer in the presence of BSA (bovine serum albumin). A separate rat group is used as a control, to which only the carrier is administered. Each of the control rats and the rats being treated are monitored for LH levels in the bloodstream at about 3 hours, 24 hours, 36 hours and 48 hours following this single bolus injection.

Row | Substance | Rats Ovulating ([1]; dosage 0.5 micrograms) | Rats Ovulating ([1]; dosage 1.0 micrograms) | Rats Ovulating ([1]; dosage 2.5 micrograms) | level of circulating LH in the bloodstream relative to Nal-Glu antagonist ([2]; 50 microgram IV, after 12 hours) | level of circulating LH in the bloodstream relative to control ([2]; 50 microgram IV, monitored at about 3, 24, 36 and 48 hours) | duration of biological effect (LH suppression) ([2]; single 50 microgram IV bolus injection)
1 | Ac-β-D-2NAL-(4Cl)D-Phe-D-3PAL-Ser-Aph(3-amino 1,2,4 triazole)-D-Aph(3-amino 1,2,4 triazole)-Leu-Lys(isopropyl)-Pro-D-Ala-NH2 [Peptide 103A] | 7/8 | 0/7 | 0/8 | below that of the rats treated with the Nal-Glu antagonist | very substantially below that of the control | very long-acting
2 | Ac-β-D-2NAL-(4Cl)D-Phe-D-3PAL-Ser-Lys (isopropyl cyanoguanidino)-D-Lys(isopropyl cyanoguanidino)-Leu-Lys(isopropyl)-Pro-D-Ala-NH2 [Peptide 1] | – | 0/5 | 0/9 | – | – | –
